pIC50: −log10 of the molar value.
Biological target: Serine/threonine-protein kinase PAK 2 (Homo sapiens) (UniProt Q13177)
Assay: PubChem AID 1224910
Settings: Caliper in vitro kinase assay, dephosphorylated PAK2

Serine/threonine-protein kinase PAK 2 (Homo sapiens), sequence (Q13177 whole entry, looked up): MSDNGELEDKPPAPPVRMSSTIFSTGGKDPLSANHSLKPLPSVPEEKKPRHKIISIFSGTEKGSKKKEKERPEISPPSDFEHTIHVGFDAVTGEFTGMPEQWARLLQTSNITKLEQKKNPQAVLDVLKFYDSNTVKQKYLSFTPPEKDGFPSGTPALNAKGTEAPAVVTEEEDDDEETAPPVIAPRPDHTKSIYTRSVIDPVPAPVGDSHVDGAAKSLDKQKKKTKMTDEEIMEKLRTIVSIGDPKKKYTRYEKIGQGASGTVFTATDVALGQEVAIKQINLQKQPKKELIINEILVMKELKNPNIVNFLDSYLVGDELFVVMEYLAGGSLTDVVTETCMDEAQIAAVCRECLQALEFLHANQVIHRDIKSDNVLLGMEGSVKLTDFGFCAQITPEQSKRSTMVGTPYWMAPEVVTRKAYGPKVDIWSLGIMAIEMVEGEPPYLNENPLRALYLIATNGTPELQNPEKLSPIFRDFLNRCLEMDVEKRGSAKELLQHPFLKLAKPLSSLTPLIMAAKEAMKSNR

pIC50: 6.57
Structure (SMILES): CC(C)NC(=O)N1CC[C@H](N=C2Nc3cc(F)ccc3N(CC(F)F)c3ccc(Cl)cc32)C1
